# Test results as given in PMC2677997 (Bioorganic & medicinal chemistry, 2009).
# Biological target: BoNT/A LC (BoNTA-LC 1-425) (Clostridium botulinum, UniProt P0DPI0)
# Assay type: biochemical
# Chain of BoNT/A LC (BoNTA-LC 1-425) (P0DPI0 1-425 limits assumed): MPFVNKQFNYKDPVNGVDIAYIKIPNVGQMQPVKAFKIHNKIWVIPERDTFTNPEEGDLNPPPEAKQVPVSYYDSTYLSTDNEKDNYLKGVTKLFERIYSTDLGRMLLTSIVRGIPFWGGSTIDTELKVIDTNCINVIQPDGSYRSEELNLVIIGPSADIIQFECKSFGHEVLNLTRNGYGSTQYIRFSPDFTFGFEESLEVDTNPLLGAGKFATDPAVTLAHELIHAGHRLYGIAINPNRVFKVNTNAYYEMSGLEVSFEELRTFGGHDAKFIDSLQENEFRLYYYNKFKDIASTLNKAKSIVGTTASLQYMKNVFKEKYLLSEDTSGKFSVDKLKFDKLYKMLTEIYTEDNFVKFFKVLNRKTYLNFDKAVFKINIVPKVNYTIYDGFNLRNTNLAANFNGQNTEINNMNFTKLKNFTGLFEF
row,SMILES,inhibitory activity
1,"O=C(CO)Nc1cc(-c2ccc(Cl)cc2)n[nH]1 [Compound 6, N-(3-(4-Chlorophenyl)-1H-pyrazol-5-yl)-2-hydroxyacetamide]",abolishes all activity
2,"CC(=O)Nc1cc(-c2ccc(Cl)cc2)n[nH]1 [Compound 7, N-(3-(4-Chlorophenyl)-1H-pyrazol-5-yl)acetamide]",abolishes all activity
